Measured values taken from patent publication US10626094B2 (La Jolla Institute of Allergy & Immunology, priority 2014, dated 2020).

Molecular target: LMPTP-A (Low Molecular Weight Protein Tyrosine Phosphatase-A) enzyme (Homo sapiens (Human), UniProt P24666)
Assay: LMPTP primary screening / LMPTP (OMFP) enzyme inhibition assay, fluorescence intensity
Assay type: biochemical
Settings: LMPTP-A, OMFP substrate, method of Example 2; read-out: IC50
Description: This assay attempts to identify inhibitors of the LMPTP-A (Low Molecular Weight Protein Tyrosine Phosphatase-A) enzyme. It is run in 1536-well format and is measured via fluorescence intensity.
A listing of materials is provided: • Item, source, catalog no. • LMPTP-A Enzyme Stock Solution (4.22 mg/ml or 206.8 μM), SBMRI Protein Facility, • N/A • OMFP, Sigma, M2629-100MG • Bis-Tris pH 6.0, Fisher Sci, BP301-100 • Triton-X 100, Sigma, T9284 • DTT, Sigma, D9779 • Mol. Grade Water, Mediatech, Inc., 46-000-CM • 1536-well black High base opaque bottom plate, Nexus Biosystems, 00019120
Final assay conditions are: • 0.625 nM LMPTP-A Enzyme • 400 μM OMFP • 50 mM Bis-Tris pH 6.0 • 1 mM DTT • 0.01% Triton-X 100 • 20 μM test compound • 3% DMSO (2% from substrate and 1% from compounds) • 6 μL reaction volume • 50 minutes incubation at room temp
Assay Procedure • 1. Prepare Reagents as described in section F. Recipe. • 2. Using LabCyte Echo, transfer 60 nL from 2 mM test compound source plate into assay plate Col. 5-48 (final concentration of test compounds is 20 μM). 60 nL of DMSO should be transferred to col. 1-4 for positive and negative control wells. • 3. Spin plates at 1000 rpm for 1 minute in centrifuge. • 4. […] Using the Bioraptr, add 3 μL/well of enzyme solution to col. 3-48. • 6. Using the Bioraptr, add 3 μL/well of substrate solution to col. 1-48. • 7. Spin plates at 1000 rpm for 1 minute in centrifuge. • 8. Incubate plates in the dark at room temperature for 50 minutes. • 9. Read plates on PerkinElmer Viewlux using a FI protocol.

LMPTP-A (Low Molecular Weight Protein Tyrosine Phosphatase-A) enzyme, sequence (P24666 whole entry): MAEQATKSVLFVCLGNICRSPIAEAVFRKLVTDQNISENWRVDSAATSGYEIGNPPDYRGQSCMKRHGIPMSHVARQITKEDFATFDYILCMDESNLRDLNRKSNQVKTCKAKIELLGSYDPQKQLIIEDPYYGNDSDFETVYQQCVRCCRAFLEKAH

Compound | IC50 [µM]
FC(F)(F)c1ccccc1-c1cc(Nc2ccccc2)c2ccccc2n1 [Compound G33, Phenyl-[2-(2-trifluoromethyl-phenyl)-quinolin-4-yl]-amine] | > 5
COc1ccc(-c2cc(Nc3cccc(CN4CCCN(C)CC4)c3)c3ccccc3n2)cc1 [Compound G57, [2-(4-methoxyphenyl)(4-quinolyl)]{3-[(4-methyl(1,4-diazaperhydroepinyl))methyl]phenyl}amine] | 0.2 to 0.8
COc1ccc(-c2cc(Nc3cncc(C)n3)c3ccccc3n2)cc1 [Compound G73, [2-(4-methoxyphenyl)(4-quinolyl)](6-methylpyrazin-2-yl)amine] | 0.801 to 5
COc1ccc(-c2cc(NCc3ccccc3C(F)(F)F)c3ccccc3n2)cc1 [Compound G80, [2-(4-methoxyphenyl)(4-quinolyl)]{[2-(trifluoromethyl)phenyl]methyl}amine] | 0.801 to 5
Cc1nc(C)c(-c2cc(N(C)C)c3ccccc3n2)s1 [Compound G21, [2-(2,4-Dimethyl-thiazol-5-yl)-quinolin-4-yl]-dimethyl-amine] | > 5
COc1ccc(-c2cc(NCCCN3CCCCC3)c3cc(OC(F)(F)F)ccc3n2)cc1 [Compound G31, [2-(4-Methoxy-phenyl)-6-trifluoromethoxy-quinolin-4-yl]-(3-piperidin-1-yl-propyl)-amine] | > 5
CN(C)c1cc(-c2ccc[nH]2)nc2ccccc12 [Compound G23, Dimethyl-[2-(1H-pyrrol-2-yl)-quinolin-4-yl]-amine] | > 5
COc1ccc(-c2cc(Nc3cncnc3)c3ccccc3n2)cc1 [Compound G66, [2-(4-methoxyphenyl)(4-quinolyl)]pyrimidin-5-ylamine] | 0.801 to 5
COc1ccc(-c2cc(Nc3ccc(Cl)cc3)c3ccccc3n2)cc1 [Compound G40, (4-chlorophenyl)[2-(4-methoxyphenyl)(4-quinolyl)]amine] | 0.801 to 5
COc1ccc(-c2cc(NCCCN3CCCCC3)c3ccc(OC)cc3n2)cc1 [Compound G26, [7-Methoxy-2-(4-methoxy-phenyl)-quinolin-4-yl]-(3-piperidin-1-yl-propyl)-amine] | > 5
FC(F)(F)Oc1ccccc1-c1cc(NCCCN2CCCCC2)c2ccccc2n1 [Compound G2, (3-Piperidin-1-yl-propyl)-[2-(2-trifluoromethoxy-phenyl)-quinolin-4-yl]-amine] | 0.2 to 0.8
[2-(3-chloro-2-prop-2-enyloxy(4-pyridyl))(4-quinolyl)](3-piperidylpropyl)amine [Compound I91] | > 5
C[Si](C)(C)c1cccc(-c2cc(NCCCN3CCCCC3)c3ccccc3n2)c1 [Compound I145] | 0.801 to 5
COc1ccc(-c2cc(Nc3ccc4ccccc4n3)c3ccccc3n2)cc1 [Compound G68, [2-(4-methoxyphenyl)(4-quinolyl)]-2-quinolylamine] | 0.801 to 5
COc1ccc(CCNc2cc(-c3ccc(OC)cc3)nc3ccccc23)cc1 [Compound G85, [2-(4-methoxyphenyl)(4-quinolyl)][2-(4-methoxyphenyl)ethyl]amine] | 0.801 to 5
COc1ccc(-c2cc(NCCc3ccc(F)cc3)c3ccccc3n2)cc1 [Compound G87, [2-(4-fluorophenyl)ethyl][2-(4-methoxyphenyl)(4-quinolyl)]amine] | 0.801 to 5
COc1ccc(-c2cc(Nc3ccc(Br)cc3)c3ccccc3n2)cc1 [Compound G41, (4-bromophenyl)[2-(4-methoxyphenyl)(4-quinolyl)]amine] | 0.801 to 5

More lines, now with the values ahead:

IC50 [µM] | Compound
> 5 | FC(F)(F)c1cc(-c2cc(Nc3ccc(CN4CCCCC4)cc3)c3ccccc3n2)cc(C(F)(F)F)c1 [Compound I43, {2-[3,5-bis(trifluoromethyl)phenyl](4-quinolyl)}[4-(piperidylmethyl)phenyl]amine]
> 5 | FC(F)(F)c1cc(-c2cc(Nc3ccccc3CC3CCNCC3)c3ccccc3n2)cc(C(F)(F)F)c1 [Compound I49, {2-[3,5-bis(trifluoromethyl)phenyl](4-quinolyl)}[2-(4-piperidylmethyl)phenyl]amine]
> 5 | FC(F)(F)c1ccc(Nc2cc(NCCCN3CCCCC3)c3ccccc3n2)c(C(F)(F)F)c1 [Compound I75]
0.801 to 5 | c1ccc2c(NCCCN3CCCCC3)cc(-c3ccc4nc[nH]c4c3)nc2c1 [Compound I111]
0.801 to 5 | Nc1cc(C(=O)N2CCOCC2)cc(-c2cc(NCCCN3CCCCC3)c3ccccc3n2)c1 [Compound I80]
> 5 | c1ccc2c(NCCCN3CCCCC3)cc(-c3ccsc3)nc2c1 [Compound I136]
0.801 to 5 | CCCCOc1ncccc1-c1cc(NCCCN2CCCCC2)c2ccccc2n1 [Compound I93]
> 5 | CN(C)CCNc1cc(-c2ccccc2)nc2ccccc12 [Compound I183, dimethyl{2-[(2-phenyl(4-quinolyl))amino]ethyl}amine]
0.2 to 0.8 | c1ccc2c(NCCCN3CCCCC3)cc(-c3ccc4ccsc4c3)nc2c1 [Compound I78]
0.801 to 5 | CCN(CC)S(=O)(=O)c1ccc(-c2cc(NCCCN3CCCCC3)c3ccccc3n2)cc1 [Compound I246]
0.801 to 5 | [2-(5-bromo-2-methoxy(4-pyridyl))(4-quinolyl)](3-piperidylpropyl)amine [Compound I89]
0.801 to 5 | CC(=O)Nc1cc(C(=O)O)cc(-c2cc(NCCCN3CCCCC3)c3ccccc3n2)c1 [Compound I250]
0.801 to 5 | c1ccc2c(NCCCN3CCCCC3)cc(-c3cncnc3)nc2c1 [Compound I143]
0.801 to 5 | CCNC(=O)c1ccc(-c2cc(NCCCN3CCCCC3)c3ccccc3n2)cc1F [Compound I229]
0.801 to 5 | CNC(=O)c1ccc(-c2cc(NCCCN3CCCCC3)c3ccccc3n2)cc1 [Compound I73]
> 5 | COc1cccc(OC)c1-c1cc(NCCCN2CCCCC2)c2ccccc2n1 [Compound I172]
0.801 to 5 | Fc1ccc(-c2cc(NCCCN3CCCCC3)c3ccccc3n2)c(C(F)(F)F)c1 [Compound I122]

IC50 [µM] | Compound
0.801 to 5 | Clc1cccc(-c2cc(Nc3ccc(CN4CCCCC4)cc3)c3ccccc3n2)c1 [Compound I11, [2-(3-chlorophenyl)(4-quinolyl)][4-(piperidylmethyl)phenyl]amine]
0.801 to 5 | CCN1CCC(Cc2cccc(Nc3cc(-c4cccc(NC(C)=O)c4)nc4ccccc34)c2)CC1 [Compound I237, N-{3-[4-({3-[(1-ethyl-4-piperidyl)methyl]phenyl}amino)-2-quinolyl]phenyl}acetamide]
0.801 to 5 | Cc1cccc(-c2cc(NCCCN3CCCCC3)c3ccccc3n2)c1C [Compound I161]
0.801 to 5 | FC(F)(F)c1ccc(C(F)(F)F)c(-c2cc(Nc3cccc(CC4CCNCC4)c3)c3ccccc3n2)c1 [Compound I41, {2-[2,5-bis(trifluoromethyl)phenyl](4-quinolyl)}[3-(4-piperidylmethyl)phenyl]amine]
0.801 to 5 | (2-fluoro-4-{4-[(3-piperidylpropyl)amino](2-quinolyl)}phenyl)-N-methylcarboxamide [Compound I228]
0.801 to 5 | COc1ccc(-c2cc(NCCC3CCCN3C)c3ccccc3n2)cc1 (centres unmarked) [Compound I24, [2-(4-methoxyphenyl)(4-quinolyl)][2-(1-methylpyrrolidin-2-yl)ethyl]amine]
> 5 | NC(=O)c1ccc(-c2cc(N3CCC(Cc4ccc(N)cc4)CC3)c3ccccc3n2)cc1 [Compound I222, 4-(4-{4-[(4-aminophenyl)methyl]piperidyl}-2-quinolyl)benzamide]
0.2 to 0.8 | CSc1ccccc1-c1cc(NCCCN2CCCCC2)c2ccccc2n1 [Compound I158]
0.801 to 5 | Fc1cc(Cl)ccc1-c1cc(Nc2ccc(CN3CCCCC3)cc2)c2ccccc2n1 [Compound I8, [2-(4-chloro-2-fluorophenyl)(4-quinolyl)][4-(piperidylmethyl)phenyl]amine]
0.801 to 5 | CS(=O)(=O)c1ccc(-c2cc(NCCCN3CCCCC3)c3ccccc3n2)cc1 [Compound I132]
0.801 to 5 | COc1ccc(-c2cc(Nc3cccc(CN4CCCC4)c3)c3c(n2)CCCC3)cc1 [Compound I209, [2-(4-methoxyphenyl)(4-5,6,7,8-tetrahydroquinolyl)][3-(pyrrolidinylmethyl)phenyl]amine]
0.801 to 5 | COc1ccc(OC)c(-c2cc(NCCCN3CCCCC3)c3ccccc3n2)c1 [Compound I173]
> 5 | NC(=O)c1ccc(-c2cc(Nc3ccc(CN4CCCCC4)cc3)c3ccccc3n2)cc1 [Compound I6, 4-(4-{[4-(piperidylmethyl)phenyl]amino}-2-quinolyl)benzamide]
0.801 to 5 | O=[N+]([O-])c1ccc(C(F)(F)F)c(-c2cc(NCCCN3CCCCC3)c3ccccc3n2)c1 [Compound I152]
0.801 to 5 | CC(C)NC(=O)c1ccc(-c2cc(NCCCN3CCCCC3)c3ccccc3n2)cc1 [Compound I61, N-(methylethyl)(4-{4-[(3-piperidylpropyl)amino](2-quinolyl)}phenyl)carboxamide]
0.2 to 0.8 | c1ccc2c(NCCCN3CCCCC3)cc(-c3ccc4sccc4c3)nc2c1 [Compound I247]
